Results published in patent US20210161868A1, “ANTI-INFLAMMATORY THERAPY IN ARRHYTHMOGENIC CARDIOMYOPATHY (ACM)” (Beth Israel Deaconess Medical Center, Inc., priority 2018, published 2021).

Test system: hearts of Dsg2^mut/mut mice
Test: Cytokine arrays in mouse hearts
Format: in vivo
Experimental: Three cohorts of mice at 8 weeks of age were anesthetized and implanted with subcutaneous osmotic mini-pumps (Alzet, Model 1004). These included: 1) Dsg2^mut/mut mice with pumps containing 50 μg/μL Bay11-7082 in a vehicle of 65% DMSO, 15% ethanol, and 20% saline; 2) Dsg2^mut/mut mice with pumps containing an equivalent volume of vehicle; and 3) wildtype mice with pumps containing vehicle. Mice in cohort 1 received 5 mg/kg/day of Bay11-7082 by continuous infusion; those in cohorts 2 and 3 received an equivalent volume of vehicle each day for 4 weeks. At 12 weeks of age, mice were re-anesthetized and new Alzet pumps were implanted for an additional 4 weeks of treatment.
Myocardium from mice was lyzed in RIPA buffer and cardiac myocytes from patient hiPSCs were lysed in TRIzol, and protein in lysates was quantified by standard BCA protein assay. Mouse (R&D Systems, Cat. No. ARY028) and Human (R&D Systems, Cat. No. ARY022B) Proteome Profiler XL Cytokine Arrays were blocked at room temperature for 1 hour before being incubated overnight at 4° C. with 200 μg of myocardial protein in blocking buffer supplied by manufacturer. Additional arrays were incubated overnight at 4° C. with 200 μl of hiPSC-cardiac myocyte culture medium according to the manufacturer's protocol for cell supernatants. Following overnight incubation, arrays were washed four times (10 minutes/wash), incubated at room temperature for 1 hour with Antibody Detection Cocktail, washed an additional four times (10 minutes/wash), then incubated with 1:2,000 Streptavidin-HRP in blocking buffer for 30 minutes at room temperature. Arrays were then washed four times and chemiluminescence was performed using the Chemi Reagent Mix included in the assay kits.
Data are presented as mean±SEM. Specific n-values are inset within each figure legend or table. P<0.05 was deemed statistically significant. As appropriate, associations between continuous dependent variables were tested using Student's paired/unpaired t-tests (binary independent variables) or one-way ANOVA (two or more variables). In the in vivo studies involving Dsg2^mut/mut mice, correlations between (i) ejection fraction and the amounts of myocardial fibrosis and apoptosis, (ii) cytokine expression levels and ejection fraction, and (iii) the levels of each individual cytokine against all other cytokines were made using Pearson's r analysis. Changes in cytokine levels in WT vs. Dsg2^mut/mut and/or untreated vs. Bay 11-7082-treated Dsg2^mut/mut mice were analyzed by two-way ANOVA with Tukey's post-hoc testing. The levels of any cytokines showing a significant change were then correlated with ejection fraction in each animal using Pearson's r analysis. In addition, the levels of all cytokines (n=111) were analyzed in a Pearson's correlation matrix table to correlate the expression level of each individual cytokine with all other cytokines.

[1] = Dsg2^mut/mut (Bay11-7082) vs Dsg2^mut/mut
[2] = Dsg2^mut/mut (Bay11-7082) vs WT
[3] = Dsg2^mut/mut mice with pumps containing 50 μg/μL Bay11-7082

Cc1ccc(S(=O)(=O)/C=C/C#N)cc1 [Bay 11-7082]
Adiponectin expression [1]: <1 | Amphiregulin expression [1]: <1 | Angiopoietin-1 expression [1]: <1 | Angiopoietin-2 expression [1]: 1-2 | Angiopoietin-like 3 expression [1]: <1 | BAFF/BLyS/TNFSF13B expression [1]: <1 | C1qR1/CD93 expression [1]: <1 | C-Reactive Protein/CRP expression [1]: <1 | CCL2/JE/MCP-1 expression [1]: <1 | CCL3/CCL4/MIP-1a/B expression [1]: <1 | CCL5/RANTES expression [1]: <1 | CCL6/C10 expression [1]: <1 | CCL17/TARC expression [1]: <1 | CCL19/MIP-3B expression [1]: <1 | CCL20/MIP-3a expression [1]: <1 | CCL21/6Ckine expression [1]: <1 | CCL22/MDC expression [1]: <1 | CD14 expression [1]: 1-2 | CD40/TNFRSF5 expression [1]: <1 | CD160 expression [1]: <1 | CX3CL1/Fractalkine expression [1]: <1 | CXCL9/MIG expression [1]: <1 | CXCL13/BLC/BCA-1 expression [1]: <1 | CXCL16 expression [1]: <1 | Chemerin expression [1]: <1 | Chitinase 3-like 1 expression [1]: <1 | Coagulation Factor III/Tissue Factor expression [1]: <1 | Complement Component C5/C5a expression [1]: <1 | Complement Factor D expression [1]: <1 | Cystatin C expression [1]: <1 | DKK-1 expression [1]: <1 | DPPIV/CD26 expression [1]: <1 | E-Selectin/CD62E expression [1]: <1 | EGF expression [1]: <1 | Endoglin/CD105 expression [1]: <1 | Endostatin expression [1]: <1 | Eotaxin (CCL11) expression [1]: <1 | FGF acidic expression [1]: <1 | FGF-21 expression [1]: <1 | FLt-3 Ligand expression [1]: <1 | Fetuin A/AHSG expression [1]: <1 | G-CSF expression [1]: <1 | GDF-15 expression [1]: <1 | GM-CSF expression [1]: <1 | Gas 6 expression [1]: <1 | HGF expression [1]: <1 | I-TAC (Cxcl11) expression [1]: <1 | IFN-y expression [1]: <1 | IGFBP-1 expression [1]: <1 | IGFBP-2 expression [1]: <1 | IGFBP-3 expression [1]: <1 | IGFBP-5 expression [1]: <1 | IGFBP-6 expression [1]: <1 | IL-1a (IL-1F1) expression [1]: <1 | IL-1ra (IL-1F3) expression [1]: <1 | IL-1β (IL-1F2) expression [1]: <1 | IL-2 expression [1]: <1 | IL-3 expression [1]: <1 | IL-4 expression [1]: <1 | IL-5 expression [1]: <1 | IL-6 expression [1]: <1 | IL-7 expression [1]: <1 | IL-10 expression [1]: <1 | IL-11 expression [1]: <1 | IL-12 p40 expression [1]: <1 | IL-13 expression [1]: <1 | IL-15 expression [1]: <1 | IL-17a expression [1]: <1 | IL-22 expression [1]: <1 | IL-23 expression [1]: <1 | IL-27 p28 expression [1]: <1 | IL-28A/B expression [1]: <1 | IL-33 expression [1]: <1 | IP-10 (CXL10/CRG-2) expression [1]: <1 | KC (CXCL1) expression [1]: <1 | LDL R expression [1]: 1-2 | LIF expression [1]: <1 | LIX expression [1]: <1 | Leptin expression [1]: <1 | Lipocalin-2/NGAL expression [1]: <1 | M-CSF expression [1]: 1-2 | MCP-5 (CCL12) expression [1]: <1 | MIP-2 (CXCL2) expression [1]: <1 | MMP-2 expression [1]: 1-2 | MMP-3 expression [1]: 1-2 | MMP-9 expression [1]: <1 | Myeloperoxidase expression [1]: <1 | Osteopontin (OPN) expression [1]: <1 | Osteoprotegerin/TNFRSF11B expression [1]: <1 | P-Selectin/CD62P expression [1]: <1 | PD-EGF/Thymidine phosphorylase expression [1]: <1 | PDGF-BB expression [1]: <1 | Pentraxin 2/SAP expression [1]: <1 | Pentraxin 3/TSG-14 expression [1]: <1 | Periostin/OSF-2 expression [1]: <1 | Pref-1/DLK-1/FA1 expression [1]: <1 | Proliferin expression [1]: <1 | Proprotein Convertase 9/PCSK9 expression [1]: 1-2 | RAGE expression [1]: <1 | RBP4 expression [1]: <1 | Reg3G expression [1]: <1 | Resistin expression [1]: <1 | Serpin E1/PAI-1 expression [1]: <1 | Serpin F1/PEDF expression [1]: <1 | TIM-1/KIM-1/HAVCR expression [1]: 1-2 | TNF-α expression [1]: <1 | Thrombopoeitin expression [1]: 1-2 | VCAM-1/CD106 expression [1]: 1-2 | VEGF expression [1]: 1-2 | WISP-1/CCN4 expression [1]: <1 | sICAM-1 (CD54) expression [1]: <1 | Adiponectin expression [2]: <1 | Amphiregulin expression [2]: <1 | Angiopoietin-1 expression [2]: <1 | Angiopoietin-2 expression [2]: <1 | Angiopoietin-like 3 expression [2]: <1 | BAFF/BLyS/TNFSF13B expression [2]: <1 | C1qR1/CD93 expression [2]: <1 | C-Reactive Protein/CRP expression [2]: <1 | CCL2/JE/MCP-1 expression [2]: <1 | CCL3/CCL4/MIP-1a/B expression [2]: <1 | CCL5/RANTES expression [2]: <1 | CCL6/C10 expression [2]: <1 | CCL17/TARC expression [2]: <1 | CCL19/MIP-3B expression [2]: <1 | CCL20/MIP-3a expression [2]: <1 | CCL21/6Ckine expression [2]: <1 | CCL22/MDC expression [2]: <1 | CD14 expression [2]: <1 | CD40/TNFRSF5 expression [2]: <1 | CD160 expression [2]: <1 | CX3CL1/Fractalkine expression [2]: <1 | CXCL9/MIG expression [2]: <1 | CXCL13/BLC/BCA-1 expression [2]: 2-4 | CXCL16 expression [2]: <1 | Chemerin expression [2]: <1 | Chitinase 3-like 1 expression [2]: <1 | Coagulation Factor III/Tissue Factor expression [2]: <1 | Complement Component C5/C5a expression [2]: <1 | Complement Factor D expression [2]: <1 | Cystatin C expression [2]: <1 | DKK-1 expression [2]: <1 | DPPIV/CD26 expression [2]: 1-2 | E-Selectin/CD62E expression [2]: <1 | EGF expression [2]: 1-2 | Endoglin/CD105 expression [2]: <1 | Endostatin expression [2]: <1 | Eotaxin (CCL11) expression [2]: <1 | FGF acidic expression [2]: <1 | FGF-21 expression [2]: <1 | FLt-3 Ligand expression [2]: <1 | Fetuin A/AHSG expression [2]: <1 | G-CSF expression [2]: 1-2 | GDF-15 expression [2]: <1 | GM-CSF expression [2]: <1 | Gas 6 expression [2]: <1 | HGF expression [2]: 4-6 | I-TAC (Cxcl11) expression [2]: <1 | IFN-y expression [2]: 1-2 | IGFBP-1 expression [2]: 1-2 | IGFBP-2 expression [2]: <1 | IGFBP-3 expression [2]: <1 | IGFBP-5 expression [2]: <1 | IGFBP-6 expression [2]: <1 | IL-1a (IL-1F1) expression [2]: <1 | IL-1ra (IL-1F3) expression [2]: 1-2 | IL-1β (IL-1F2) expression [2]: 6-10 | IL-2 expression [2]: <1 | IL-3 expression [2]: <1 | IL-4 expression [2]: <1 | IL-5 expression [2]: <1 | IL-6 expression [2]: <1 | IL-7 expression [2]: <1 | IL-10 expression [2]: <1 | IL-11 expression [2]: <1 | IL-12 p40 expression [2]: 1-2 | IL-13 expression [2]: 1-2 | IL-15 expression [2]: 2-4 | IL-17a expression [2]: <1 | IL-22 expression [2]: <1 | IL-23 expression [2]: <1 | IL-27 p28 expression [2]: <1 | IL-28A/B expression [2]: 1-2 | IL-33 expression [2]: 2-4 | IP-10 (CXL10/CRG-2) expression [2]: <1 | KC (CXCL1) expression [2]: <1 | LDL R expression [2]: 1-2 | LIF expression [2]: <1 | LIX expression [2]: >10 | Leptin expression [2]: 1-2 | Lipocalin-2/NGAL expression [2]: <1 | M-CSF expression [2]: >20 | MCP-5 (CCL12) expression [2]: <1 | MIP-2 (CXCL2) expression [2]: <1 | MMP-2 expression [2]: 4-6 | MMP-3 expression [2]: <1 | MMP-9 expression [2]: <1 | Myeloperoxidase expression [2]: 2-4 | Osteopontin (OPN) expression [2]: 4-6 | Osteoprotegerin/TNFRSF11B expression [2]: <1 | P-Selectin/CD62P expression [2]: >10 | PD-EGF/Thymidine phosphorylase expression [2]: <1 | PDGF-BB expression [2]: 1-2 | Pentraxin 2/SAP expression [2]: 1-2 | Pentraxin 3/TSG-14 expression [2]: <1 | Periostin/OSF-2 expression [2]: <1 | Pref-1/DLK-1/FA1 expression [2]: 6-10 | Proliferin expression [2]: 6-10 | Proprotein Convertase 9/PCSK9 expression [2]: <1 | RAGE expression [2]: <1 | RBP4 expression [2]: 1-2 | Reg3G expression [2]: 6-10 | Resistin expression [2]: 2-4 | Serpin E1/PAI-1 expression [2]: 6-10 | Serpin F1/PEDF expression [2]: <1 | TIM-1/KIM-1/HAVCR expression [2]: <1 | TNF-α expression [2]: 1-2 | Thrombopoeitin expression [2]: <1 | VCAM-1/CD106 expression [2]: 6-10 | VEGF expression [2]: <1 | WISP-1/CCN4 expression [2]: <1 | sICAM-1 (CD54) expression [2]: 1-2 | LIX (CXCL5) level [3]: markedly reduced | OPN expression [3]: reduced | increased expression of cytokines in Dsg2^mut/mut hearts (in most, but not all, cases): blunted or fully normalized
